Laboratory results taken from publication PMC12254266, “Multicolored sequential resonance energy transfer for detection of simultaneous ligand binding at G protein-coupled receptors” (Nature Communications, 2025).
Values joined by “and” are separate entries in the source; they are usually repeats but may differ in a detail not shown here. Equal values may be shown once.

Assays:
FFA1 = FFA1 (Homo sapiens, UniProt O14842); test: Ca2+ mobilisation (Fura2) in Flp-In T-REx 293 cells expressing Nluc-FFA1, FFA1-Nluc or untagged FFA1; format: cell-based; set-up: expressed in transfected cells; settings: for pEC50: Ca2+ data, mean±SEM; for pEC50 / EMax: NR = No response; for Ca2+ Response as a % of T360 Response: single technical replicates; for EMax: percentage of response to 10 μM T360
Sequence of FFA1 (O14842 whole entry): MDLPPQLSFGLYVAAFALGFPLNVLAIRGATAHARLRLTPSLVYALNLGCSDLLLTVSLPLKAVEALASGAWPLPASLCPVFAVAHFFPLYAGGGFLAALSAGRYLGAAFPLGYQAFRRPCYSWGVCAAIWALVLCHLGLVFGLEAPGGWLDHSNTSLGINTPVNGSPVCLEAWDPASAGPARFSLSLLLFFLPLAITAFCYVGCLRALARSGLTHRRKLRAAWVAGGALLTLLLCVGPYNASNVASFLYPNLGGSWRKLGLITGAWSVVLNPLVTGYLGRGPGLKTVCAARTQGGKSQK
Outline: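 520 nm emission read at 340 and 380 nm excitation over 90 s spanning compound addition. Response taken as peak 340/380 ratio after subtracting pre-addition ratios.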

FFA1-Nluc = FFA1-Nluc (Homo sapiens, UniProt O14842); test: DISCo-BRET (endpoint, spectra scan, kinetics) with TUG-2591 and TUG-2597 at C terminal Nluc tagged FFA1; format: binding; set-up: expressed in transfected cells; settings: for pIC50 DISCo-BRET NBD/Nluc / pIC50 DISCo-BRET SulfoCy5/NBD / 'bottom' of the IC50 curve, DISCo-BRET SulfoCy5/NBD: 100 nM TUG-2591 and […] TUG-2597; for pIC50 DISCo-BRET NBD/Nluc / pIC50 DISCo-BRET SulfoCy5/NBD: NC = No competition; for pIC50 DISCo-BRET SulfoCy5/NBD: one site model; for Specific BRET (540/450), % of control: Figure 4Bii, single replicate values (technical duplicate); for 'bottom' of the IC50 curve, DISCo-BRET NBD/Nluc / 'bottom' of the IC50 curve, DISCo-BRET SulfoCy5/NBD: percentage of binding obtained in the absence of competing ligand; for pKi DISCo-BRET NBD/Nluc: using Kd TUG-2597 380 nM
Sequence of FFA1-Nluc (O14842 whole entry): as above
Outline: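 Flp-In T-REx 293 cells expressing Nluc-tagged FFA1 were induced with 100 ng/mL doxycycline for 24 h, then given Nano-Glo (1:800 final). Endpoint and spectral reads were taken 5 min after ligand at 37 °C; kinetics were read at 25 °C with sequential ligand additions. BRET ratios were taken from Nluc, NBD and SulfoCy5 emissions.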

| pEC50 (FFA1) | EMax (FFA1) [%] | pIC50 DISCo-BRET NBD/Nluc (FFA1-Nluc) | pIC50 DISCo-BRET SulfoCy5/NBD (FFA1-Nluc) | 'bottom' of the IC50 curve, DISCo-BRET NBD/Nluc (FFA1-Nluc) [%] | 'bottom' of the IC50 curve, DISCo-BRET SulfoCy5/NBD (FFA1-Nluc) [%] | pKi DISCo-BRET NBD/Nluc (FFA1-Nluc) | Compound | Ca2+ Response as a % of T360 Response (FFA1; log[Ligand] -6) | Ca2+ Response as a % of T360 Response (FFA1; log[Ligand] -6.5) | Ca2+ Response as a % of T360 Response (FFA1; log[Ligand] -7) | Ca2+ Response as a % of T360 Response (FFA1; log[Ligand] -8) | Ca2+ Response as a % of T360 Response (FFA1; log[Ligand] -9) | Specific BRET (540/450), % of control (FFA1-Nluc; log[Ligand] -5) | Specific BRET (540/450), % of control (FFA1-Nluc; log[Ligand] -5.5) | Specific BRET (540/450), % of control (FFA1-Nluc; log[Ligand] -6) | Specific BRET (540/450), % of control (FFA1-Nluc; log[Ligand] -6.5) | Specific BRET (540/450), % of control (FFA1-Nluc; log[Ligand] -7) | Specific BRET (540/450), % of control (FFA1-Nluc; log[Ligand] -8) | Specific BRET (540/450), % of control (FFA1-Nluc; log[Ligand] -9) | further results |
| --- | --- | --- | --- | --- | --- | --- | --- | --- | --- | --- | --- | --- | --- | --- | --- | --- | --- | --- | --- | --- |
| 7.48±0.31 | 105±5 | 7.1±0.2 | 7.6±0.1 | 2.7 | 25 | 7.3±0.2 | COc1ccc(CCCC(C)(C)C)c(N2CCC(COc3cccc(C(CC(=O)O)C4CC4)c3)CC2)c1.O=C(O)C(F)(F)F (stereo not drawn) [T360] | 107.28% and 92.72% and 101.13% and 98.87% and 101.25% and 98.75% | 78.71% and 83.08% and 86.23% and 89.07% and 107.10% and 103.71% | 50.40% and 57.83% and 53.05% and 49.34% and 105.47% and 92.83% | 4.55% and 3.96% and 1.45% and 1.23% and 56.26% and 55.08% | 6.44% and -16.92% and -0.13% and -0.73% and -0.82% and -0.55% | 1.63 % of control and 7.70 % of control and -6.77 % of control and 6.77 % of control and -12.97 % of control and -14.56 % of control and 1.39 % of control and 12.17 % of control and -49.44 % of control and -45.86 % of control and -1.49 % of control and 1.49 % of control and 11.42 % of control and 8.60 % of control | 30.05 % of control and 22.50 % of control and 2.63 % of control and 15.04 % of control and 41.18 % of control and 27.53 % of control and 25.39 % of control and 35.48 % of control and -24.38 % of control and -7.83 % of control and -19.08 % of control and -0.74 % of control and 16.94 % of control and 11.73 % of control | 30.79 % of control and 26.05 % of control and 32.33 % of control and 27.63 % of control and 21.16 % of control and 17.29 % of control and 31.30 % of control and 14.26 % of control and 23.94 % of control and -20.81 % of control and -12.14 % of control and 8.18 % of control and 24.56 % of control and 26.12 % of control | 56.11 % of control and 56.70 % of control and 19.92 % of control and 23.50 % of control and 31.40 % of control and 51.88 % of control and 45.22 % of control and 38.96 % of control and 25.28 % of control and 31.99 % of control and -27.26 % of control and -0.25 % of control and 41.03 % of control and 36.03 % of control | 69.58 % of control and 52.70 % of control and 27.26 % of control and 51.32 % of control and 37.09 % of control and 73.27 % of control and 43.13 % of control and 45.22 % of control and 35.12 % of control and 64.21 % of control and 2.48 % of control and 20.07 % of control and 56.78 % of control and 46.56 % of control | 90.01 % of control and 86.45 % of control and 67.29 % of control and 72.37 % of control and 95.79 % of control and 112.63 % of control and 106.43 % of control and 144.35 % of control and 71.81 % of control and 80.31 % of control and 48.08 % of control and 68.65 % of control and 78.15 % of control and 70.13 % of control | 104.22 % of control and 94.30 % of control and 79.70 % of control and 92.67 % of control and 141.30 % of control and 86.46 % of control and 144.00 % of control and 157.22 % of control and 122.37 % of control and 108.50 % of control and 74.10 % of control and 106.82 % of control and 97.86 % of control and 85.14 % of control | Ca2+ Response as a % of T360 Response (FFA1; log[Ligand] -7.5): 52.48% and 51.74% and 26.53% and 33.96% and 89.83% and 84.58%; Ca2+ Response as a % of T360 Response (FFA1; log[Ligand] -10): -18.12% and -11.48% and -0.62% and 0.09% and -1.11% and 0.64% |
| 7.58±0.37 | 108±8 | 7.3±0.1 | 7.4±0.1 | 9.3 | 16 | 7.5±0.1 | COc1ccc(C(=O)N(CC(C)(C)C)c2cccc(C)n2)c(N2CCC(COc3cccc(C(CC(=O)O)C4CC4)c3)CC2)c1.O=C(O)C(F)(F)F (stereo not drawn) [Cpd 6h, reference compound] | 71.8152% and 70.2762% and 114.0711% and 118.1782% and 101.8675% and 96.5850% | 60.3759% and 123.2785% and 113.4233% and 101.5371% and 93.1451% | 63.1956% and 51.7459% and 118.1727% and 120.9922% and 92.4678% and 86.2833% | 10.9661% and -4.3988% and 87.5826% and 74.3785% and 6.7799% and 2.9748% | -2.3895% and -2.3898% and 3.1637% and 3.9796% and -0.4916% and 4.7706% | 29.23 % of control and -1.54 % of control and -0.53 % of control and 0.53 % of control and 0.62 % of control and 6.18 % of control and -2.77 % of control and 4.56 % of control and -7.63 % of control and 10.97 % of control | 46.57 % of control and -7.13 % of control and 13.78 % of control and 13.63 % of control and 17.56 % of control and 19.08 % of control and -1.79 % of control and 0.81 % of control and 1.43 % of control and -21.22 % of control | 59.72 % of control and 23.08 % of control and 13.18 % of control and 6.55 % of control and 14.37 % of control and 13.95 % of control and 102.77 % of control and 7.65 % of control and 12.16 % of control and 25.98 % of control | 46.01 % of control and 12.17 % of control and 20.56 % of control and 31.70 % of control and 26.58 % of control and 36.43 % of control and 14.98 % of control and 12.87 % of control and 22.17 % of control and 15.73 % of control | 46.01 % of control and 48.53 % of control and 38.93 % of control and 54.59 % of control and 43.79 % of control and 54.75 % of control and 36.48 % of control and 23.45 % of control and 26.46 % of control and 27.41 % of control | 134.69 % of control and 121.26 % of control and 83.36 % of control and 78.84 % of control and 78.63 % of control and 91.67 % of control and 70.36 % of control and 75.90 % of control and 108.22 % of control and 143.98 % of control | 144.76 % of control and 148.39 % of control and 88.63 % of control and 100.08 % of control and 88.76 % of control and 93.89 % of control and 95.60 % of control and 108.79 % of control and 114.18 % of control and 110.13 % of control | Ca2+ Response as a % of T360 Response (FFA1; log[Ligand] -5): 84.6341% and 118.5422% and 131.5391% and 131.6815%; Ca2+ Response as a % of T360 Response (FFA1; log[Ligand] -5.5): 110.3362% and 90.2944% and 104.2328% and 116.7691% and 104.8460% and 102.3011% |
